In PMC10607100, “Anticancer and Antiphytopathogenic Activity of Fluorinated Isatins and Their Water-Soluble Hydrazone Derivatives” (International Journal of Molecular Sciences, 2023):
Read-outs that look alike come from different tables or passages of the source.

Legend:
[1] = system: Xanthomonas campestris B-610; assay: Agar-well diffusion, bactericidal activity; format: cell-based; settings: Xanthomonas campestris
Procedure, shortened: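 Agar-well diffusion on GYCa agar (pH 7.2–7.4) seeded with bacterial suspension; 150 μL compound solution placed in 6-mm wells. Inhibition zone width measured after 36–40 h incubation.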

[2] = system: five representative phytopathogens; assay: Agar-well diffusion, bactericidal activity over the panel of phytopathogens; format: cell-based; settings: 36 h, 2 mM solutions; dependent on the test system used; read-out: inhibition zone width (mm), range over the test systems
Procedure, shortened: (§1)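 Bacteria spread on agar (BP medium; GYCa for X. campestris; pH 7.2–7.4) with 6-mm wells, each receiving 150 μL compound solution. Cultures grown at 28 °C; growth-inhibition zone width measured after 36–40 h.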

[3] = system: Pseudomonas fluorescens EL-2.1; assay: Agar-well diffusion, bactericidal activity; format: cell-based; settings: Pseudomonas fluorescens, EL2.1, 2 mM/L
Procedure, shortened: as §1

[4] = system: Pectobacterium atrosepticum 1043; assay: Agar-well diffusion, bactericidal activity; format: cell-based; settings: Pectobacterium atrosepticum, 1043; 2 mM/L; average of 3 experiments; read-out: width of the inhibition zone (mm), P. atrosepticum
Procedure, shortened: as §1

Micrococcus luteus B-109 = assay: Agar-well diffusion, bactericidal activity; format: cell-based; settings: Micrococcus luteus
Procedure, shortened: as §1

[5] = system: Pectobacterium carotovorum subsp. carotovorum MI; assay: Agar-well diffusion, bactericidal activity; format: cell-based; settings: Pectobacterium carotovorum, 2 mM/L
Procedure, shortened: as §1

[6] = system: Fusarium oxysporum IBPPM 543; assay: Mycelial radial growth inhibition; format: cell-based; settings: for inhibition of growth at 1 µM: 1 nmol/mL; for inhibition of growth at 1 µM / inhibition of growth at 3 µM / inhibition of growth at 20 µM / inhibition of growth at 30 µM: read-out: Inhibition value, I (%); for inhibition of growth at 3 µM: 3 nmol/mL; for inhibition of growth at 20 µM: 20 nmol/mL; for inhibition of growth at 30 µM: 30 nmol/mL
Procedure, shortened: (§2)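 Compounds mixed into molten GPY agar at various concentrations; centre inoculated with a 5-mm mycelial plug from 10-day cultures and incubated at 27 °C. Colony diameter compared with untreated control until control plate was covered (usually 12 days); ≥4 replicates in two experiments.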

[7] = system: Phytophthora cactorum VKM F-985; assay: Mycelial radial growth inhibition; format: cell-based; settings: for inhibition of growth at 1 µM: 1 nmol/mL; for inhibition of growth at 1 µM / inhibition of growth at 3 µM / inhibition of growth at 7 µM / inhibition of growth / inhibition of growth at 40 µM: read-out: Inhibition value, I (%); for inhibition of growth at 3 µM: 3 nmol/mL; for inhibition of growth at 7 µM: 7 nmol/mL; for inhibition of growth: 27 nmol/mL; for inhibition of growth at 40 µM: 40 nmol/mL
Procedure, shortened: as §2

[8] = Table S3, read-out: Inhibition zone width (mm), not less
[9] = Fusarium oxysporum, IBPPM543, 72 h, age of the fungus 3 days
[10] = Fusarium oxysporum, IBPPM543, 120 h, age of the fungus 5 days
[11] = Fusarium oxysporum, IBPPM543, 168 h, age of the fungus 7 days
[12] = Fusarium oxysporum, IBPPM543, 216 h, age of the fungus 9 days
[13] = Phytophthora cactorum, 72 h, age of the fungus 3 days
[14] = Phytophthora cactorum, 120 h, age of the fungus 5 days
[15] = Phytophthora cactorum, 168 h, age of the fungus 7 days
[16] = Phytophthora cactorum, 216 h, age of the fungus 9 days

## Cc1ccc2c(c1)C(=NNC(=O)C[n+]1ccccc1)C(=O)N2Cc1cccc(C(F)(F)F)c1.[Cl-] [Compound 5e, 1-(2-(2-(5-Methyl-2-oxo-1-(3-(trifluoromethyl)benzyl)indolin-3-ylidene)hydrazinyl)-2-oxoethyl)pyridin-1-ium chloride]
[1]; B610, 2 mM/L, average of 3 experiments, read-out: width of the inhibition zone (mm), X. campestris
  zone of inhibition at 2000 µM: 5 mm
[1]; B610, Table S3, 2 mM/L, read-out: Inhibition zone width (mm), not less
  zone of inhibition at 2000 µM: ≥ 5 mm
[2]
  zone of inhibition at 2000 µM: 4 to 7 mm
[3]; average of 3 experiments, read-out: width of the inhibition zone (mm), Ps. fluorescens
  zone of inhibition at 2000 µM: 7 mm
[3]; [8]
  zone of inhibition at 2000 µM: ≥ 7 mm
[4]
  zone of inhibition at 2000 µM: 4 mm
Micrococcus luteus B-109; B109, 2 mM/L, average of 3 experiments, read-out: width of the inhibition zone (mm), M. luteus
  zone of inhibition at 2000 µM: 6 mm
Micrococcus luteus B-109; B109, Table S3, 2 mM/L, read-out: Inhibition zone width (mm), not less
  zone of inhibition at 2000 µM: ≥ 6 mm
[5]; average of 3 experiments, read-out: width of the inhibition zone (mm), P. carotovorum subsp. carotovorum
  zone of inhibition at 2000 µM: 5 mm
[5]; [8]
  zone of inhibition at 2000 µM: ≥ 5 mm
other
  melting point: 202 to 203 °C
[6]; [9]
  inhibition of growth at 1 µM: 33%
  inhibition of growth at 3 µM: 66%
  inhibition of growth at 20 µM: 69%
  inhibition of growth at 30 µM: 75%
[6]; Fusarium oxysporum, IBPPM543, 120 h, day 5, read-out: EC50, µg/mL at Day 5, F. oxysporum
  EC50: 0.6 µg/mL
[6]; [10]
  inhibition of growth at 1 µM: 48%
  inhibition of growth at 3 µM: 67%
  inhibition of growth at 20 µM: 72%
  inhibition of growth at 30 µM: 76%
[6]; [11]
  inhibition of growth at 1 µM: 33%
  inhibition of growth at 3 µM: 65%
  inhibition of growth at 20 µM: 69%
  inhibition of growth at 30 µM: 72%
[6]; [12]
  inhibition of growth at 1 µM: 18%
  inhibition of growth at 3 µM: 64%
  inhibition of growth at 20 µM: 67%
  inhibition of growth at 30 µM: 71%
[6]; Fusarium oxysporum, IBPPM543, read-out: IC50, antifungal activity against F. oxysporum
  IC50: 0.6 µg/mL
[6]; same culture age (5 days)
  fungicidal action stronger than N-cetylpyridinium chloride: 235 times
  inhibition of Fusarium growth greater than fludioxonil: 139 times
[7]; 5 days of growth
  antagonistic effect superior to that of N-cetylpyridinium chloride: 1.3 times
  antagonistic effect superior to that of fludioxonil: 1.1 times
[7]; [13]
  inhibition of growth at 1 µM: 20%
  inhibition of growth at 3 µM: 23%
  inhibition of growth at 7 µM: 25%
  inhibition of growth: 28%
  inhibition of growth at 40 µM: 35%
[7]; Phytophthora cactorum, 120 h, day 5, read-out: EC50, µg/mL at Day 5, P. cactorum
  EC50: 27.4 µg/mL
[7]; [14]
  inhibition of growth at 1 µM: 16%
  inhibition of growth at 3 µM: 19%
  inhibition of growth at 7 µM: 30%
  inhibition of growth: 35%
  inhibition of growth at 40 µM: 38%
[7]; [15]
  inhibition of growth at 1 µM: 15%
  inhibition of growth at 3 µM: 17%
  inhibition of growth at 7 µM: 23%
  inhibition of growth: 26%
  inhibition of growth at 40 µM: 29%
[7]; [16]
  inhibition of growth at 1 µM: 14%
  inhibition of growth at 3 µM: 17%
  inhibition of growth at 7 µM: 19%
  inhibition of growth: 21%
  inhibition of growth at 40 µM: 26%
